Results reported in patent publication US12473310B2, “Vitamin D3 phosphate and pharmaceutically acceptable salts thereof, pharmaceutical compositions comprising the compound and methods for preparing the compound” (King's College London, priority 2020, dated 2025).
Counter-ions that a name gives are not always drawn.

Legend:
[1] = physchem; assay type: physicochemical; settings: 22 °C, organic solvent or mixture, thermodynamic from solid, HPLC
Experimental: An aliquot of 2.5 mg cholecalciferol and 2.5 mg cholecalciferol phosphate disodium salt prepared according to Example 1 were weighed into glass vials and 100 μL aliquots of the test solvents with different dielectric constants; water, MeOH:water (90:10), ethylene glycol, methanol (MeOH), propylene glycol (PG), ethanol (EtOH), poly(ethylene glycol) (PEG-400), and mineral oil were added until the sample was fully dissolved visually. A precise determination of the solubility was undertaken using high-performance liquid chromatography (HPLC). In the HPLC solubility studies an excess amount of cholecalciferol and cholecalciferol phosphate was added into 2 mL of each test solvent; water, MeOH:water (90:10), MeOH, and PG, EtOH and mineral oil. The solutions were left stirring overnight at room temperature, (RT), 22° C. The saturation of the solutions was confirmed by the visual appearance of crystals and the drug suspensions were filtered through 0.2 μm syringe filters, diluted, and the concentration of each sample was assessed using the HPLC method detailed below.
HPLC analysis was conducted using an HPLC system consisting of an auto-sample injector (Jasco AS-4050, Japan), a pump (Jasco PU-4180, Japan), and a photodiode array detector (Jasco MD-4017, Japan). The data was collected and analysed using the ChromNAV software. […]

[2] = parameters: species or system porcine
Experimental: To verify the percentage of drug that could be recovered from each layer of the skin, each layer was isolated for a 2.19±0.21 cm^2 piece of skin, the drug was spiked into each layer, it was incubated and then recovered. For the SC tape stripping as described above was used to isolate the skin layer. A total of 20 pieces of tape were used to remove the SC and these strips were added into sample bottles. The epidermis was removed from the dermis, cut into small pieces, and placed into bottles. The test solutions were spiked (500 μL) into a sample bottle containing the SC and (200 μL) into the sample bottles containing the epidermis and dermis. The samples containing the spiked drugs were left for 1 h for the drugs to absorb into the tissues. After the 1 h incubation period, 10 mL of extraction fluid (PG:EtOH, 50:50 for cholecalciferol and MeOH:water, 90:10 for cholecalciferol phosphate) was added into SC, and 2 mL of extraction fluid was added into epidermis and dermis then incubated in a shaking water bath overnight at 32° C. The solutions with both epidermis and dermis were then homogenised by Ultra Turrax for 1 min and filtered using 0.2 μm syringe filters and analysed by HPLC method.

| Structure (SMILES) | solubility [1] | % Recovery, drug extraction validation, Epidermis [2] |
| --- | --- | --- |
| C=C1CC[C@H](OP(=O)(O)O)C/C1=C/C=C1\CCC[C@@]2(C)C1CC[C@@H]2[C@H](C)CCCC(C)C (some centres unmarked) [Cholecalciferol phosphate disodium salt, cholecalciferol phosphate disodium salt] | 3700 µg/mL |  |
| C=C1CC[C@H](O)C/C1=C/C=C1\CCC[C@]2(C)[C@@H]([C@H](C)CCCC(C)C)CC[C@@H]12 [Cholecalciferol, cholecalciferol, reference compound] |  | 104.86 ± 0.54% |
